# In patent US9926282B2, “Phthalazinones and isoquinolinones as rock inhibitors” (BRISTOL-MYERS SQUIBB COMPANY, priority 2013, dated 2018):
# What was measured:
# [1] = molecular target: ROCK2 (Homo sapiens (Human), UniProt O75116); experiment: ROCK assay (LABCHIP peptide phosphorylation), ROCK2; type: biochemical; details: 5 μM ATP, 1.5 μM peptide substrate
# [2] = molecular target: ROCK1 (Homo sapiens (Human), UniProt Q13464); experiment: ROCK assay (LABCHIP peptide phosphorylation), ROCK1; type: biochemical; details: 5 μM ATP, 1.5 μM peptide substrate; read-out: ROCK1 IC50
# Chain of ROCK1 (Q13464 whole entry, species assumed): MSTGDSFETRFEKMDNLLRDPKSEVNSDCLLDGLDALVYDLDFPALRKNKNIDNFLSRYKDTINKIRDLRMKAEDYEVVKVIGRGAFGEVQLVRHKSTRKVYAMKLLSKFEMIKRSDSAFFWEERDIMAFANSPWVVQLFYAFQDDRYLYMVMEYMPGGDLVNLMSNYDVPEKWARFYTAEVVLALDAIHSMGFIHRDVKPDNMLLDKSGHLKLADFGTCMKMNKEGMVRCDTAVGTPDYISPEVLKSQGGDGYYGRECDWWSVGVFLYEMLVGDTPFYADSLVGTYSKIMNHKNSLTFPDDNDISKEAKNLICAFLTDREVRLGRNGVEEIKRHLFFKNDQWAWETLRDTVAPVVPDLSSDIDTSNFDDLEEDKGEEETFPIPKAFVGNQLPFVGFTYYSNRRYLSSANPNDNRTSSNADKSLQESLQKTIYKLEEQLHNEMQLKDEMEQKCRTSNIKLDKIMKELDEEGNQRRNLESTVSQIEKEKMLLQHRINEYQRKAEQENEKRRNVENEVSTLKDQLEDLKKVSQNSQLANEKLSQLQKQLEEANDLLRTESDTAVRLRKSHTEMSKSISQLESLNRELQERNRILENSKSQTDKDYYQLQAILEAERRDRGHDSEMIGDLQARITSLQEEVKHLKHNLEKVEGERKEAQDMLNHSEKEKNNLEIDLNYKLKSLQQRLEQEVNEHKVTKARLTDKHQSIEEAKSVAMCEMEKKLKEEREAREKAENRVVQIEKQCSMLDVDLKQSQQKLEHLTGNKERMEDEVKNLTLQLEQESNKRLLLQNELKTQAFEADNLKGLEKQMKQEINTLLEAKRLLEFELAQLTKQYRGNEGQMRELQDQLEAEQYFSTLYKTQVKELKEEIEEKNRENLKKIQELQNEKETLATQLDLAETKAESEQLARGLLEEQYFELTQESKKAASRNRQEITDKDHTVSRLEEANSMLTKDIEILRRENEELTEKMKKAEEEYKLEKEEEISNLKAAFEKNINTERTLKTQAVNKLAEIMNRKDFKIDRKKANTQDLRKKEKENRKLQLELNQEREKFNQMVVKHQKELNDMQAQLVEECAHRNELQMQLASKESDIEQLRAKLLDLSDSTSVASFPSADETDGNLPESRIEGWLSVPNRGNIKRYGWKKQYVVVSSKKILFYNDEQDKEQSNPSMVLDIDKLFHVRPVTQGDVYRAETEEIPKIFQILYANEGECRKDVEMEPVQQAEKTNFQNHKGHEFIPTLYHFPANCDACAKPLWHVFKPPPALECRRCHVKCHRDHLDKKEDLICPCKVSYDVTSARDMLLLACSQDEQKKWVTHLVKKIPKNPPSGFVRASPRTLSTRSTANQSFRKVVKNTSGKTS
# Chain of ROCK2 (O75116 whole entry, species assumed): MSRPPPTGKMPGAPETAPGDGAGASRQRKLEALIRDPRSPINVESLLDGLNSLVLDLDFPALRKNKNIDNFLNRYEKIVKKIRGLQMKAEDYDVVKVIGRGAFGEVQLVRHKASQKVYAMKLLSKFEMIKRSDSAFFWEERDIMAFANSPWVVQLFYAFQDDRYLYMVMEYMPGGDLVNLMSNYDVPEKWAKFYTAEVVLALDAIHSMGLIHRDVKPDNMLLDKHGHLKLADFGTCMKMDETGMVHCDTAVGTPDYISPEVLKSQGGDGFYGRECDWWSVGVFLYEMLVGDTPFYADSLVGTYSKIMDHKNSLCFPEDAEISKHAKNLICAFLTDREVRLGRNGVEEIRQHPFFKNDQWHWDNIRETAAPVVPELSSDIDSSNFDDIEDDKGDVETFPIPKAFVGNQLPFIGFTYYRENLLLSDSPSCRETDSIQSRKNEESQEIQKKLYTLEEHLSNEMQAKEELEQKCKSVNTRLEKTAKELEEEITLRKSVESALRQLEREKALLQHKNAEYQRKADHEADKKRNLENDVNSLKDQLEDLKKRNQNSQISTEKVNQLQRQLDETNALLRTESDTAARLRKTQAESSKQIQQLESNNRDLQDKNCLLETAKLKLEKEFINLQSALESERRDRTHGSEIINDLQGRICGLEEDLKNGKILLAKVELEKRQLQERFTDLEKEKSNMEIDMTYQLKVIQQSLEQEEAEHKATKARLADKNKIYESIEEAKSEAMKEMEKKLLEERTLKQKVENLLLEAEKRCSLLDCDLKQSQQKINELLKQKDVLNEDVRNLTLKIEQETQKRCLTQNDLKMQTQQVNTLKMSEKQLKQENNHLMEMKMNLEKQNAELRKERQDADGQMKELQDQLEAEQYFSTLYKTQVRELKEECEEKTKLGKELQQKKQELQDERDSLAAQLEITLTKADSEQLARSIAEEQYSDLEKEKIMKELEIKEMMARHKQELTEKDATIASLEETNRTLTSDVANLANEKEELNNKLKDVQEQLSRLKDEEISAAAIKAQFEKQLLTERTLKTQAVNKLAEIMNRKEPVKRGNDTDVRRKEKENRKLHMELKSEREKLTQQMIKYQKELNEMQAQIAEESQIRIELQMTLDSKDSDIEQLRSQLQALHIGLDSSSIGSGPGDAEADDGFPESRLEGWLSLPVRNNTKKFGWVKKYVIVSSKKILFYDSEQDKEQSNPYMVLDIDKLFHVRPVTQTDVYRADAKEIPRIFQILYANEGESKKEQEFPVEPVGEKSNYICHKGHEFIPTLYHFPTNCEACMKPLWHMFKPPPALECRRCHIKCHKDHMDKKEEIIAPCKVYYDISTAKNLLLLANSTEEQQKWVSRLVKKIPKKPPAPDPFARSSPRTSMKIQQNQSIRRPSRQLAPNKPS
IC50 [1] [nM],IC50 [2] [nM],Compound
101 to 1000,1000 to 50000,"O=C(Nc1ccc(-c2n[nH]c(=O)c3ccccc23)cc1)C1CC(=O)N(c2cccc(Cl)c2F)C1 (stereo not drawn) [Example 211, 1-(3-chloro-2-fluorophenyl)-5-oxo-N-[4-(4-oxo-3,4-dihydrophthalazin-1-yl)phenyl]pyrrolidine-3-carboxamide]"
0.1 to 100,101 to 1000,"Cn1cc(C(=O)Nc2ccc(-c3n[nH]c(=O)c4ccccc34)cc2)cn1 [Example 212, 1-methyl-N-[4-(4-oxo-3,4-dihydrophthalazin-1-yl)phenyl]-1H-pyrazole-4-carboxamide]"
0.1 to 100,0.1 to 100,"Cc1cc(C(=O)Nc2ccc(-c3n[nH]c(=O)c4ccccc34)cc2)nn1-c1ccccc1 [Example 213, 5-methyl-N-[4-(4-oxo-3,4-dihydrophthalazin-1-yl)phenyl]-1-phenyl-1H-pyrazole-3-carboxamide]"
0.1 to 100,0.1 to 100,"Cc1ccccc1-n1ncc(C(=O)Nc2ccc(-c3n[nH]c(=O)c4ccccc34)cc2)c1C [Example 214, 5-methyl-1-(2-methylphenyl)-N-[4-(4-oxo-3,4-dihydrophthalazin-1-yl)phenyl]-1H-pyrazole-4-carboxamide]"
101 to 1000,101 to 1000,"O=C(Nc1ccc(-c2n[nH]c(=O)c3ccccc23)cc1)C1CCN(c2ccccc2)C1=O (stereo not drawn) [Example 215, 2-oxo-N-[4-(4-oxo-3,4-dihydrophthalazin-1-yl)phenyl]-1-phenylpyrrolidine-3-carboxamide]"
101 to 1000,1000 to 50000,"COc1ccccc1N1CCC(C(=O)Nc2ccc(-c3n[nH]c(=O)c4ccccc34)cc2)C1=O (stereo not drawn) [Example 216, 1-(2-methoxyphenyl)-2-oxo-N-[4-(4-oxo-3,4-dihydrophthalazin-1-yl)phenyl]pyrrolidine-3-carboxamide]"
101 to 1000,1000 to 50000,"O=C(Nc1ccc(-c2n[nH]c(=O)c3ccccc23)cc1)C1CC(=O)N(c2ccccc2)C1 (stereo not drawn) [Example 217, 5-oxo-N-[4-(4-oxo-3,4-dihydrophthalazin-1-yl)phenyl]-1-phenylpyrrolidine-3-carboxamide]"
101 to 1000,1000 to 50000,"CC(C)N1CC(C(=O)Nc2ccc(-c3n[nH]c(=O)c4ccccc34)cc2)CC1=O (stereo not drawn) [Example 218, 5-oxo-N-[4-(4-oxo-3,4-dihydrophthalazin-1-yl)phenyl]-1-(propan-2-yl)pyrrolidine-3-carboxamide]"
0.1 to 100,0.1 to 100,"Cc1nn(-c2ccccc2)c(C)c1C(=O)Nc1ccc(-c2n[nH]c(=O)c3ccccc23)cc1 [Example 219, 3,5-dimethyl-N-[4-(4-oxo-3,4-dihydrophthalazin-1-yl)phenyl]-1-phenyl-1H-pyrazole-4-carboxamide]"
0.1 to 100,0.1 to 100,"O=C(Nc1ccc(-c2n[nH]c(=O)c3ccccc23)cc1)c1cnn(-c2ccccc2Cl)c1 [Example 220, 1-(2-chlorophenyl)-N-[4-(4-oxo-3,4-dihydrophthalazin-1-yl)phenyl]-1H-pyrazole-4-carboxamide]"
101 to 1000,101 to 1000,"CC(C)c1c(C(=O)Nc2ccc(-c3n[nH]c(=O)c4ccccc34)cc2)nnn1-c1ccccc1 [Example 221, N-[4-(4-oxo-3,4-dihydrophthalazin-1-yl)phenyl]-1-phenyl-5-(propan-2-yl)-1H-1,2,3-triazole-4-carboxamide]"
0.1 to 100,0.1 to 100,"Cc1c(C(=O)Nc2ccc(-c3n[nH]c(=O)c4ccccc34)cc2)nnn1-c1ccccc1F [Example 222, 1-(2-fluorophenyl)-5-methyl-N-[4-(4-oxo-3,4-dihydrophthalazin-1-yl)phenyl]-1H-1,2,3-triazole-4-carboxamide]"
0.1 to 100,0.1 to 100,"Cc1noc(-c2ccc(C(C)(C)O)cc2)c1C(=O)Nc1ccc(-c2n[nH]c(=O)c3ccccc23)cc1 [Example 223, 5-[4-(2-hydroxypropan-2-yl)phenyl]-3-methyl-N-[4-(4-oxo-3,4-dihydrophthalazin-1-yl)phenyl]-1,2-oxazole-4-carboxamide]"
0.1 to 100,0.1 to 100,"Cc1noc(-c2ccc(CO)cc2)c1C(=O)Nc1ccc(-c2n[nH]c(=O)c3ccccc23)cc1 [Example 224, 5-[4-(hydroxymethyl)phenyl]-3-methyl-N-[4-(4-oxo-3,4-dihydrophthalazin-1-yl)phenyl]-1,2-oxazole-4-carboxamide]"
0.1 to 100,0.1 to 100,"O=C(Nc1ccc(-c2n[nH]c(=O)c3ccccc23)cc1)c1ccn(-c2ccccc2)n1 [Example 226, N-[4-(4-oxo-3,4-dihydrophthalazin-1-yl)phenyl]-1-phenyl-1H-pyrazole-3-carboxamide]"
0.1 to 100,101 to 1000,"Cn1ccc(C(=O)Nc2ccc(-c3n[nH]c(=O)c4ccccc34)cc2)n1 [Example 227, 1-methyl-N-[4-(4-oxo-3,4-dihydrophthalazin-1-yl)phenyl]-1H-pyrazole-3-carboxamide]"
0.1 to 100,0.1 to 100,"Cc1nn(-c2ccccc2)cc1C(=O)Nc1ccc(-c2n[nH]c(=O)c3ccccc23)cc1 [Example 228, 3-methyl-N-[4-(4-oxo-3,4-dihydrophthalazin-1-yl)phenyl]-1-phenyl-1H-pyrazole-4-carboxamide]"

IC50 [1] [nM],IC50 [2] [nM],Compound
0.1 to 100,0.1 to 100,"CCCc1cc(C(=O)Nc2ccc(-c3n[nH]c(=O)c4ccccc34)cc2)nn1C [Example 229, 1-methyl-N-[4-(4-oxo-3,4-dihydrophthalazin-1-yl)phenyl]-5-propyl-1H-pyrazole-3-carboxamide]"
0.1 to 100,0.1 to 100,"O=C(Nc1ccc(-c2n[nH]c(=O)c3ccccc23)cc1)c1c[nH]c(-c2ccccc2)n1 [Example 230, N-[4-(4-oxo-3,4-dihydrophthalazin-1-yl)phenyl]-2-phenyl-1H-imidazole-4-carboxamide]"
0.1 to 100,101 to 1000,"CCCc1c(C(=O)Nc2ccc(-c3n[nH]c(=O)c4ccccc34)cc2)nnn1-c1ccccc1 [Example 231, N-[4-(4-oxo-3,4-dihydrophthalazin-1-yl)phenyl]-1-phenyl-5-propyl-1H-1,2,3-triazole-4-carboxamide]"
0.1 to 100,101 to 1000,"Cc1c(C(=O)Nc2ccc(-c3n[nH]c(=O)c4ccccc34)cc2)nnn1-c1cccc(C(F)(F)F)c1 [Example 232, 5-methyl-N-[4-(4-oxo-3,4-dihydrophthalazin-1-yl)phenyl]-1-[3-(trifluoromethyl)phenyl]-1H-1,2,3-triazole-4-carboxamide]"
101 to 1000,101 to 1000,"CCn1cncc1C(=O)Nc1ccc(-c2n[nH]c(=O)c3ccccc23)cc1 [Example 233, 1-ethyl-N-[4-(4-oxo-3,4-dihydrophthalazin-1-yl)phenyl]-1H-imidazole-5-carboxamide]"
0.1 to 100,101 to 1000,"CC(C)(C)n1cc(NC(=O)c2ccncc2)c(C(=O)Nc2ccc(-c3n[nH]c(=O)c4ccccc34)cc2)n1 [Example 234, N-(1-tert-butyl-3-{[4-(4-oxo-3,4-dihydrophthalazin-1-yl)phenyl]carbamoyl}-1H-pyrazol-4-yl)pyridine-4-carboxamide]"
0.1 to 100,0.1 to 100,"Cc1cc(C(=O)Nc2ccc(-c3n[nH]c(=O)c4ccccc34)cc2)nn1C(C)(C)C [Example 235, 1-tert-butyl-5-methyl-N-[4-(4-oxo-3,4-dihydrophthalazin-1-yl)phenyl]-1H-pyrazole-3-carboxamide]"
0.1 to 100,101 to 1000,"O=C(Nc1ccc(-c2n[nH]c(=O)c3ccccc23)cc1)c1ccnn1-c1ccccc1 [Example 236, N-[4-(4-oxo-3,4-dihydrophthalazin-1-yl)phenyl]-1-phenyl-1H-pyrazole-5-carboxamide]"
0.1 to 100,101 to 1000,"O=C(Nc1ccc(-c2n[nH]c(=O)c3ccccc23)cc1)c1n[nH]c(-c2ccccn2)n1 [Example 237, N-[4-(4-oxo-3,4-dihydrophthalazin-1-yl)phenyl]-5-(pyridin-2-yl)-1H-1,2,4-triazole-3-carboxamide]"
0.1 to 100,101 to 1000,"Cc1nn(-c2cccc(Cl)c2Cl)nc1C(=O)Nc1ccc(-c2n[nH]c(=O)c3ccccc23)cc1 [Example 238, 2-(2,3-dichlorophenyl)-5-methyl-N-[4-(4-oxo-3,4-dihydrophthalazin-1-yl)phenyl]-2H-1,2,3-triazole-4-carboxamide]"
0.1 to 100,101 to 1000,"COc1ccc(C#N)c(-n2cnc(C(=O)Nc3ccc(-c4n[nH]c(=O)c5ccccc45)cc3)n2)c1 [Example 239, 1-(2-cyano-5-methoxyphenyl)-N-[4-(4-oxo-3,4-dihydrophthalazin-1-yl)phenyl]-1H-1,2,4-triazole-3-carboxamide]"
0.1 to 100,101 to 1000,"O=C(Nc1ccc(-c2n[nH]c(=O)c3ccccc23)cc1)c1ncn(-c2ccccn2)n1 [Example 240, N-[4-(4-oxo-3,4-dihydrophthalazin-1-yl)phenyl]-1-(pyridin-2-yl)-1H-1,2,4-triazole-3-carboxamide]"
0.1 to 100,0.1 to 100,"Cc1nc(N2CCCc3ccccc32)sc1C(=O)Nc1ccc(-c2n[nH]c(=O)c3ccccc23)cc1 [Example 241, 4-methyl-N-[4-(4-oxo-3,4-dihydrophthalazin-1-yl)phenyl]-2-(1,2,3,4-tetrahydroquinolin-1-yl)-1,3-thiazole-5-carboxamide]"
0.1 to 100,101 to 1000,"Cc1nc(C(=O)Nc2ccc(-c3n[nH]c(=O)c4ccccc34)cc2)c[nH]1 [Example 242, 2-methyl-N-[4-(4-oxo-3,4-dihydrophthalazin-1-yl)phenyl]-1H-imidazole-4-carboxamide]"
0.1 to 100,0.1 to 100,"CN(C)c1cccc(C(=O)Nc2ccc(-c3c[nH]c(=O)c4ccccc34)cc2)c1 [Example 244, 3-(Dimethylamino)-N-[4-(1-oxo-1,2-dihydroisoquinolin-4-yl)phenyl]benzamide]"
0.1 to 100,0.1 to 100,"CN(C)c1ccc(C(=O)Nc2ccc(-c3c[nH]c(=O)c4ccccc34)cc2)cc1 [Example 245, 4-(Dimethylamino)-N-(4-(1-oxo-1,2-dihydroisoquinolin-4-yl)phenyl)benzamide]"
